Among the data in US9834521B2, “Choline kinase inhibitors” (ARIAD Pharmaceuticals, Inc., priority 2013, dated 2017) are IC50 values, retold here.

Molecules are shown by their SMILES. A value given as a limit tells only on which side of the number the result lay.

The target in one assay is T1, truncated form of human Choline kinase α1 that includes residues 75-457 (Homo sapiens, UniProt P35790).
T1 construct: made in house
T1 sequence (P35790 75-457): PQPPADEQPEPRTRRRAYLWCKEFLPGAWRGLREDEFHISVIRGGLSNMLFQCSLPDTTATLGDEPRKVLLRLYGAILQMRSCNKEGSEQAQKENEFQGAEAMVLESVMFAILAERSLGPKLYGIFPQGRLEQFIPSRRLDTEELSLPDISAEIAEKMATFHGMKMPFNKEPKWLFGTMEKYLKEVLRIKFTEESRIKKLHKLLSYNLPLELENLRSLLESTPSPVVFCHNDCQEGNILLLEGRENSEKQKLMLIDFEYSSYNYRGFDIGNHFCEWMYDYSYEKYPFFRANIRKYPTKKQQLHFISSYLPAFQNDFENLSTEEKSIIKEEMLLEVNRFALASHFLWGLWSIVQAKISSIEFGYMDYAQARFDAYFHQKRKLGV
Kind of assay: Kinase Assay, coupled (ATP regeneration) LDH/PK assay, NADH absorbance. The settings on record: Examples designated with an asterisk (*): version 1 of the Kinase Assay, 200 nM enzyme; read-out: IC50. It is filed as biochemical. The method, then:
Absorbance of NADH (340 nm) was measured over 30 min using a SpectraMax M5 (Molecular Devices). Initial reaction velocity (ΔA340/Δt) was calculated and plotted as a function of inhibitor concentration in a 2-fold dilution series. IC50 values were obtained by fitting the relative velocities to a dose-response model.
The term IC50 denotes the concentration needed to halve the response being measured. `CN1CCCN(Cc2ccc(-c3ccc(C(=O)O)cc3)cc2)CC1` [Example 159, 4′-((4-methyl-1,4-diazepan-1-yl)methyl)-[1,1′-biphenyl]-4-carboxylic acid]: the half-inhibitory concentration (IC50) is less than 50 µM. On the same count and under the same terms, the result for `CN1CCCN(Cc2ccc(CCCCc3ccc(CN4CCCN(C)CC4)cc3)cc2)CC1` [Example 154, 1,4-bis(4-((4-methyl-1,4-diazepan-1-yl)methyl)phenyl)butane] reads less than 50 µM; that for `CN1CCC(N2CCN(Cc3ccc(CN4CCCN(C)CC4)cc3)CC2)CC1` [Example 149, 1-methyl-4-(4-((4-(1-methylpiperidin-4-yl)piperazin-1-yl)methyl)benzyl)-1,4-diazepane], less than 50 µM. On the same count and under the same terms, the result for `CN1CCCN(Cc2ccc(CN3CCN(CCO)CC3)cc2)CC1` [Example 147, 2-(4-(4-((4-methyl-1,4-diazepan-1-yl)methyl)benzyl)piperazin-1-yl)ethanol] reads less than 50 µM.

The assay is the same for the next values; noted with them: Examples not designated with an asterisk; footnote prints version 1 of the Kinase Assay; read-out: IC50.
Take `CC(=O)NNC(=O)CCc1ccc(-c2ccc(CN3CCCN(C)CC3)cc2)cc1` [Example 122, N′-acetyl-3-(4′-((4-methyl-1,4-diazepan-1-yl)methyl)-[1,1′-biphenyl]-4-yl)propanehydrazide]: the IC50 was less than 2 µM. Same read-out and setting: the result for `CN1CCCN(Cc2ccc(-c3ccc(-c4nnn[nH]4)cc3)cc2)CC1` [Example 129, 1-((4′-(1H-tetrazol-5-yl)-[1,1′-biphenyl]-4-yl)methyl)-4-methyl-1,4-diazepane] reads less than 50 µM; that for `CN1CCCN(Cc2ccc(-c3ccc(O)cc3)c(C#N)c2)CC1` [Example 107, 4′-hydroxy-4-((4-methyl-1,4-diazepan-1-yl)methyl)-[1,1′-biphenyl]-2-carbonitrile], less than 0.5 µM.

Take `CN1CCCN(Cc2ccc(-c3ccc(C(=O)N4CCC(O)CC4)cc3)c(C#N)c2)CC1` [Example 19, 4′-(4-hydroxypiperidine-1-carbonyl)-4-((4-methyl-1,4-diazepan-1-yl)methyl)-[1,1′-biphenyl]-2-carbonitrile]: the half-inhibitory concentration (IC50) is less than 0.5 µM. Turning to `CN1CCCN(Cc2ccc(-c3ccc(C(=O)N4CCCN(C)CC4)cc3-c3ccccc3)c(C#N)c2)CC1` [Example 65, 4-((4-methyl-1,4-diazepan-1-yl)methyl)-4′-(4-methyl-1,4-diazepane-1-carbonyl)-[1,1′:2′,1″-terphenyl]-2-carbonitrile], the IC50 was less than 0.5 µM. Same read-out and setting: the result for `Cc1cc(C#N)ccc1-c1ccc(CN2CCCN(C)CC2)cc1C#N` [Example 121, 2′-methyl-4-((4-methyl-1,4-diazepan-1-yl)methyl)-[1,1′-biphenyl]-2,4′-dicarbonitrile] reads less than 2 µM.

Take `COC(=O)c1ccc(-c2ccc(CN3CCCN(C)CC3)cc2C#N)c(Br)c1` [Example 156, methyl 2-bromo-2′-cyano-4′-((4-methyl-1,4-diazepan-1-yl)methyl)-[1,1′-biphenyl]-4-carboxylate]: the IC50 is less than 2 µM. Same read-out and setting: the result for `CN1CCCN(Cc2ccc(-c3ccc(C(F)(F)F)cc3CO)cc2)CC1` [Example 131, (4′-((4-methyl-1,4-diazepan-1-yl)methyl)-4-(trifluoromethyl)-[1,1′-biphenyl]-2-yl)methanol] reads less than 50 µM. On the same count and under the same terms, the result for `CC(=O)Nc1ccc(-c2ccc(CN3CCCN(C)CC3)cc2C#N)cn1` [Example 102, N-(5-(2-cyano-4-((4-methyl-1,4-diazepan-1-yl)methyl)phenyl)pyridin-2-yl)acetamide] reads less than 0.5 µM.

In the case of `CN1CCCN(Cc2ccc(-c3ccc(CC(N)C(=O)O)cc3)c(C#N)c2)CC1` (stereo not drawn) [Example 100, 2-amino-3-(2′-cyano-4′-((4-methyl-1,4-diazepan-1-yl)methyl)-[1,1′-biphenyl]-4-yl)propanoic acid], the IC50 was less than 0.5 µM. For the compound `CC(=O)N1CCN(c2ccc(-c3ccc(CN4CCCN(C)CC4)cc3)cn2)CC1` [Example 120, 1-(4-(5-(4-((4-methyl-1,4-diazepan-1-yl)methyl)phenyl)pyridin-2-yl)piperazin-1-yl)ethanone], the concentration for half-maximal inhibition (IC50) is less than 2 µM.
